Holding throughout (type): cell-based
In assay [1] the test system is S. aureus ATCC 29213 (methicillin sensitive). As to the kind of experiment: broth microdilution MIC assay, S. aureus ATCC 29213. The note with it: Staphylococcus aureus, ATCC 29213 / MSSA. Here is the method:
(§1) To determine the ability of test compounds to potentiate the inhibition of the growth of bacterial strains, classic cell-based broth microdilution MIC assays were employed. MIC assays are performed according to CLSI methods except where otherwise noted (CLSI, 2011 and CLSI, 2009). The reference strains S. aureus ATCC 29213 (methicillin sensitive), S. aureus ATCC 33591 (methicillin-resistant), E. coli ATCC 25922 (wild-type/QC strain), P. aeruginosa ATCC 27853 (wild-type/QC strain), and the clinical isolate P. aeruginosa PA 8 were used to determine the ability of the exemplary carbapenem compounds to inhibit bacterial growth. An expanded panel of methicillin resistance S. aureus (MRSA) and Pseudomonas was also used to determine the ability of exemplary carbapenem compounds to inhibit bacterial growth across a broader representation of those species. To determine activity in MRSA and in addition to S. aureus ATCC 33591, S. aureus USA 300, USA 400 and USA 600, some of the most common clones found to cause human infection, were also used. To further gauge the impact on the carbapenem compounds due to various resistance mechanisms in Pseudomonas, the following strains were included: P. aeruginosa 35151 (hyper-permeable strain), P. aeruginosa AmexAB-OprM (an efflux pump knockout), and P. aeruginosa PA 3 (a clinical isolate of reduced carbapenem susceptibility). Briefly, cryo-preserved bacterial cultures of clinical strains are streaked for isolation on appropriate agar medium, in this case Mueller Hinton II agar. Following incubation to allow formation of colonies, these plates are sealed with parafilm and stored refrigerated for up to two weeks. For preparation of assay inocula and to ensure low variability, at least 5 colonies are picked from the agar plates with an inoculating loop and aseptically transferred to a culture tube containing 3 mL of Mueller-Hinton Broth (supplemented with divalent cations to required levels based on Manufacturers' specification). The broth culture is grown for 3-5 hours at 37° C. with shaking at 200 rpm. Meanwhile, 2-fold serial dilutions of test compounds are conducted in a 96 well plate with a final volume of 75 μL per well at 2-fold the final desired concentration. After the dilution plates are set up the growing cultures are then diluted in a cuvette containing MH II broth and the optical density is measured at 600 nm. Inocula are diluted such that 75 μL of this culture in Mueller-Hinton Broth results in a starting bacterial concentration of 5×10^5 CFU/mL when added to the dilution plates. The plates are incubated 16-20 hours at 37° C. The MIC is read visually as the lowest concentration well with no bacterial growth.
(§2) Representative results are shown in Tables 3, 4, and 5 where A represents an MIC>32 μg/mL, B represents an MIC between 8 and 32 μg/mL inclusive, C represents an MIC between 1 and 4 μg/mL inclusive, and D represents an MIC of <1 μg/mL. NT=Not Tested.
(Broth dilution looks for growth in wells or tubes with falling amounts of substance.)

Assay [2] deals with S. aureus ATCC 33591 (methicillin-resistant). As to the kind of experiment: broth microdilution MIC assay, S. aureus ATCC 33591. The note with it: Staphylococcus aureus, ATCC 33591 / MRSA. In outline: (§3)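 CLSI broth microdilution in cation-supplemented Mueller-Hinton broth, starting inoculum 5×10^5 CFU/mL, 2-fold compound dilutions. Incubation 16-20 h at 37 °C; MIC read visually as the lowest concentration with no growth.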

Assay [3] deals with E. coli ATCC 25922 (wild-type/QC strain). As to the kind of experiment: broth microdilution MIC assay, E. coli ATCC 25922. The note with it: Escherichia coli. In outline: as §3
In assay [4] the test system is P. aeruginosa ATCC 27853 (wild-type/QC strain). As to the kind of experiment: broth microdilution MIC assay, P. aeruginosa ATCC 27853. The following applies: Pseudomonas aeruginosa. In short, it runs like this: as §3
Assay [5] concerns clinical isolate P. aeruginosa PA 8. The experiment in a line: broth microdilution MIC assay, P. aeruginosa PA 8. The note with it: Pseudomonas aeruginosa; Table 3; P. aeruginosa PA8. Here is the method:
as §1, §2

Setting [6] is: Table 3, S. aureus 29213 (MSSA), read-out: S. aureus 29213 (MSSA) MIC.
The mark [7] stands for this setting: Table 3, S. aureus 33591 (MRSA), read-out: S. aureus 33591 (MRSA) MIC.
Setting [8] is: ATCC25922, Table 3, E. coli 25922, read-out: E. coli 25922 MIC.
The mark [9] stands for this setting: ATCC27853, Table 3, P. aeruginosa 27853, read-out: P. aeruginosa 27853 MIC.

Where two headings read alike, the source gives them in different places.

`C[C@@H](O)[C@H]1C(=O)N2C(C(=O)O)=C(S[C@@H]3CCN(C4CCNCC4)C3)[C@H](C)[C@H]12` [Example 1, (4R,5S,6S)-6-((R)-1-hydroxyethyl)-4-methyl-7-oxo-3-(((R)-1-(piperidin-4-yl)pyrrolidin-3-yl)thio)-1-azabicyclo[3.2.0]hept-2-ene-2-carboxylic acid]: the MIC in assay [1] (setting [6]) is less than 1 µg/mL; in assay [2] (setting [7]), 8 to 32 µg/mL; in assay [3] (setting [8]), less than 1 µg/mL; in assay [4] (setting [9]) it was 1 to 4 µg/mL.
Turning to `C[C@@H](O)[C@H]1C(=O)N2C(C(=O)O)=C(S[C@H]3CCN(C4CCNCC4)C3)[C@H](C)[C@H]12` [Example 2, (4R,5S,6S)-6-((R)-1-hydroxyethyl)-4-methyl-7-oxo-3-(((S)-1-(piperidin-4-yl)pyrrolidin-3-yl)thio)-1-azabicyclo[3.2.0]hept-2-ene-2-carboxylic acid], the MIC is less than 1 µg/mL in assay [1] (setting [6]); 8 to 32 µg/mL in assay [2] (setting [7]); less than 1 µg/mL in assay [3] (setting [8]); 1 to 4 µg/mL in assay [4] (setting [9]); greater than 32 µg/mL in assay [5].
For the compound `C[C@@H](O)[C@H]1C(=O)N2C(C(=O)O)=C(S[C@@H]3CCN(C4CCCNC4)C3)[C@H](C)[C@H]12` (stereo partly drawn) [Example 4, (4R,5S,6S)-6-((R)-1-hydroxyethyl)-4-methyl-7-oxo-3-(((3R)-1-(piperidin-3-yl)pyrrolidin-3-yl)thio)-1-azabicyclo[3.2.0]hept-2-ene-2-carboxylic acid], the MIC is less than 1 µg/mL in assay [1] (setting [6]); 8 to 32 µg/mL in assay [2] (setting [7]); less than 1 µg/mL in assay [3] (setting [8]); 1 to 4 µg/mL in assay [4] (setting [9]); 8 to 32 µg/mL in assay [5].
For `C[C@@H](O)[C@H]1C(=O)N2C(C(=O)O)=C(S[C@@H]3C[C@@H](CO)N(C4CCNCC4)C3)[C@H](C)[C@H]12` [Example 5, (4R,5S,6S)-6-((R)-1-hydroxyethyl)-3-(((3R,5S)-5-(hydroxymethyl)-1-(piperidin-4-yl)pyrrolidin-3-yl)thio)-4-methyl-7-oxo-1-azabicyclo[3.2.0]hept-2-ene-2-carboxylic acid], the MIC in assay [1] (setting [6]) is less than 1 µg/mL; in assay [2] (setting [7]), 8 to 32 µg/mL; in assay [3] (setting [8]), less than 1 µg/mL; in assay [4] (setting [9]), 1 to 4 µg/mL.
As for `C[C@@H](O)[C@H]1C(=O)N2C(C(=O)O)=C(S[C@@H]3CCN(C4CCNC4)C3)[C@H](C)[C@H]12` (stereo partly drawn) [Example 6, (4R,5S,6S)-3-(((3R)-[1,3′-bipyrrolidin]-3-yl)thio)-6-((R)-1-hydroxyethyl)-4-methyl-7-oxo-1-azabicyclo[3.2.0]hept-2-ene-2-carboxylic acid], the MIC in assay [1] (setting [6]) was less than 1 µg/mL; in assay [2] (setting [7]), 8 to 32 µg/mL; in assay [3] (setting [8]), less than 1 µg/mL; in assay [4] (setting [9]) it was 1 to 4 µg/mL; in assay [5] it was 1 to 4 µg/mL.
For the compound `C[C@@H](O)[C@H]1C(=O)N2C(C(=O)O)=C(S[C@@H]3CCN(CC4CCNCC4)C3)[C@H](C)[C@H]12` [Example 7, (4R,5S,6S)-6-((R)-1-hydroxyethyl)-4-methyl-7-oxo-3-(((R)-1-(piperidin-4-ylmethyl)pyrrolidin-3-yl)thio)-1-azabicyclo[3.2.0]hept-2-ene-2-carboxylic acid], the MIC is less than 1 µg/mL in assay [1] (setting [6]); 1 to 4 µg/mL in assay [2] (setting [7]); less than 1 µg/mL in assay [3] (setting [8]); 1 to 4 µg/mL in assay [4] (setting [9]); 1 to 4 µg/mL in assay [5].
Regarding `C[C@@H](O)[C@H]1C(=O)N2C(C(=O)O)=C(S[C@@H]3CCN(C[C@H]4CCCN4)C3)[C@H](C)[C@H]12` [Example 8, (4R,5S,6S)-6-((R)-1-hydroxyethyl)-4-methyl-7-oxo-3-(((R)-1-(((R)-pyrrolidin-2-yl)methyl)pyrrolidin-3-yl)thio)-1-azabicyclo[3.2.0]hept-2-ene-2-carboxylic acid], the MIC in assay [1] (setting [6]) is less than 1 µg/mL; in assay [2] (setting [7]), 1 to 4 µg/mL; in assay [3] (setting [8]), less than 1 µg/mL; in assay [4] (setting [9]), 8 to 32 µg/mL; in assay [5], 8 to 32 µg/mL.
On to `C[C@@H](O)[C@H]1C(=O)N2C(C(=O)O)=C(S[C@@H]3CCN(Cc4cccnc4)C3)[C@H](C)[C@H]12` [Example 10, (4R,5S,6S)-6-((R)-1-hydroxyethyl)-4-methyl-7-oxo-3-(((R)-1-(pyridin-3-ylmethyl)pyrrolidin-3-yl)thio)-1-azabicyclo[3.2.0]hept-2-ene-2-carboxylic acid], for which the MIC was less than 1 µg/mL in assay [1] (setting [6]), 8 to 32 µg/mL in assay [2] (setting [7]), less than 1 µg/mL in assay [3] (setting [8]) and 8 to 32 µg/mL in assay [4] (setting [9]).
With `C[C@@H](O)[C@H]1C(=O)N2C(C(=O)O)=C(S[C@@H]3CCN(CC4CCCNC4)C3)[C@H](C)[C@H]12` (stereo partly drawn) [Example 12, (4R,5S,6S)-6-((R)-1-hydroxyethyl)-4-methyl-7-oxo-3-(((3R)-1-(piperidin-3-ylmethyl)pyrrolidin-3-yl)thio)-1-azabicyclo[3.2.0]hept-2-ene-2-carboxylic acid], the MIC in assay [1] (setting [6]) was less than 1 µg/mL; in assay [2] (setting [7]), 8 to 32 µg/mL; in assay [3] (setting [8]) it was less than 1 µg/mL; in assay [4] (setting [9]), 8 to 32 µg/mL.
For the compound `C[C@@H](O)[C@H]1C(=O)N2C(C(=O)O)=C(S[C@@H]3CCN(CC4CCCCN4)C3)[C@H](C)[C@H]12` (stereo partly drawn) [Example 13, (4R,5S,6S)-6-((R)-1-hydroxyethyl)-4-methyl-7-oxo-3-(((3R)-1-(piperidin-2-ylmethyl)pyrrolidin-3-yl)thio)-1-azabicyclo[3.2.0]hept-2-ene-2-carboxylic acid], the MIC in assay [1] (setting [6]) is less than 1 µg/mL; in assay [2] (setting [7]) it was 8 to 32 µg/mL; in assay [3] (setting [8]) it was less than 1 µg/mL; in assay [4] (setting [9]) it was 8 to 32 µg/mL.
Turning to `C[C@@H](O)[C@H]1C(=O)N2C(C(=O)O)=C(S[C@@H]3CCN(C[C@@H]4CCCN4)C3)[C@H](C)[C@H]12` [Example 14, (4R,5S,6S)-6-((R)-1-hydroxyethyl)-4-methyl-7-oxo-3-(((R)-1-(((S)-pyrrolidin-2-yl)methyl)pyrrolidin-3-yl)thio)-1-azabicyclo[3.2.0]hept-2-ene-2-carboxylic acid], the MIC was less than 1 µg/mL in assay [1] (setting [6]), 8 to 32 µg/mL in assay [2] (setting [7]), less than 1 µg/mL in assay [3] (setting [8]) and 8 to 32 µg/mL in assay [4] (setting [9]).
Take `C[C@@H](O)[C@H]1C(=O)N2C(C(=O)O)=C(S[C@@H]3CCN(CC4(C)CCNCC4)C3)[C@H](C)[C@H]12` [Example 15, (4R,5S,6S)-6-((R)-1-hydroxyethyl)-4-methyl-3-(((R)-1-((4-methylpiperidin-4-yl)methyl)pyrrolidin-3-yl)thio)-7-oxo-1-azabicyclo[3.2.0]hept-2-ene-2-carboxylic acid]: the MIC is less than 1 µg/mL in assay [1] (setting [6]), 8 to 32 µg/mL in assay [2] (setting [7]), less than 1 µg/mL in assay [3] (setting [8]) and 8 to 32 µg/mL in assay [4] (setting [9]).
Turning to `C[C@@H](O)[C@H]1C(=O)N2C(C(=O)O)=C(S[C@@H]3CCN(CC4(F)CCNCC4)C3)[C@H](C)[C@H]12` [Example 16, (4R,5S,6S)-3-(((R)-1-((4-fluoropiperidin-4-yl)methyl)pyrrolidin-3-yl)thio)-6-((R)-1-hydroxyethyl)-4-methyl-7-oxo-1-azabicyclo[3.2.0]hept-2-ene-2-carboxylic acid], the MIC in assay [1] (read-out: S. aureus 29213 (MSSA) MIC (μg/mL)) was less than 1 µg/mL; in assay [2] (read-out: S. aureus 33591 (MRSA) MIC (μg/mL)) it was 8 to 32 µg/mL; in assay [3] (ATCC25922, read-out: E. coli 25922 MIC (μg/mL)), less than 1 µg/mL; in assay [4] (ATCC27853, read-out: P. aeruginosa 27853 MIC (μg/mL)), 8 to 32 µg/mL.

(Values after patent US12084445B2, “Broad-spectrum carbapenems” (VenatoRx Pharmaceuticals, Inc., priority 2018, dated 2024).)
